This note sets out measurements from patent US10172358B2, “Thiopicolinamide compounds with fungicidal activity” (Dow AgroSciences LLC, priority 2016, dated 2019).

Usually melting point stands for the temperature, or range, at which the solid turns liquid.

Series [1] concerns Puccinia triticina. The experiment in a line: Fungicidal activity: wheat brown rust (PUCCRT), disease control on wheat seedlings. Type of series: in vivo, Puccinia triticina on wheat plants (variety Yuma). To be noted: for pest or weed control at 121.5 g/ha: low volume application, 121.5 g/H; for pest or weed control at 100 ppm: high volume application. The protocol:
Technical grades of materials were dissolved in acetone, which were then mixed with nine volumes of water (H2O) containing 110 ppm Triton X-100. The fungicide solutions were applied onto wheat seedlings using an automated booth sprayer to run-off. All sprayed plants were allowed to air dry prior to further handling. All fungicides were evaluated using the aforementioned method for their activity vs. all target diseases, unless stated otherwise. Wheat leaf blotch and brown rust activity were also evaluated using track spray applications, in which case the fungicides were formulated as EC formulations, containing 0.1% Trycol 5941 in the spray solutions. Evaluation of Fungicidal Activity: Wheat Brown Rust (Puccinia triticina; Synonym: Puccinia recondita f. Sp. Tritici; Bayer Code PUCCRT) Wheat plants (variety Yuma) were grown from seed in a greenhouse in 50% mineral soil/50% soil-less Metro mix until the first leaf was fully emerged, with 7-10 seedlings per pot. These plants were inoculated with an aqueous spore suspension of Puccinia triticina either prior to or after fungicide treatments. After inoculation the plants were kept in a dark dew room at 22° C. with 100% relative humidity overnight to permit spores to germinate and infect the leaf. The plants were then transferred to a greenhouse set at 24° C. for disease to develop. Fungicide formulation, application and disease assessment followed the procedures as described in the Example A. The results of the evalution are shown below in Table 4.

Series [2] has as its system Phakopsora pachyrhizi. The experiment in a line: Fungicidal activity: Asian soybean rust (PHAKPA), disease control on soybean seedlings. Type of series: in vivo. The protocol:
Evaluation of Fungicidal Activity: Asian Soybean Rust (Phakopsora Pachyrhizi; Bayer Code PHAKPA)
Technical grades of materials were dissolved in acetone, which were then mixed with nine volumes of H2O containing 0.011% Tween 20. The fungicide solutions were applied onto soybean seedlings using an automated booth sprayer to run-off. All sprayed plants were allowed to air dry prior to further handling.
Soybean plants (variety Williams 82) were grown in soil-less Metro mix, with one plant per pot. Two weeks old seedlings were used for testing. Plants were inoculated either 3 days prior to or 1 day after fungicide treatments. Plants were incubated for 24 h in a dark dew room at 22° C. and 100% relative humidity then transferred to a growth room at 23° C. for disease to develop. Disease severity was assessed on the sprayed leaves.

The test system of series [3] is Zymoseptoria tritici. The experiment in a line: Fungicidal activity: leaf blotch of wheat (SEPTTR), disease control on wheat seedlings. The series is classed as in vivo, Zymoseptoria tritici on wheat plants (variety Yuma). To be noted: for pest or weed control at 121.5 g/ha: low volume application, 121.5 g/H; for pest or weed control at 100 ppm: high volume application. The protocol: Evaluation of Fungicidal Activity: Leaf Blotch of Wheat (Zymoseptoria Tritici; Bayer Code […]) Technical grades of materials were dissolved in acetone, which were then mixed with nine volumes of water (H2O) containing 110 ppm Triton X-100. The fungicide solutions were applied onto wheat seedlings using an automated booth sprayer to run-off. All sprayed plants were allowed to air dry prior to further handling. All fungicides were evaluated using the aforementioned method for their activity vs. all target diseases, unless stated otherwise. Wheat leaf blotch and brown rust activity were also evaluated using track spray applications, in which case the fungicides were formulated as EC formulations, containing 0.1% Trycol 5941 in the spray solutions. Wheat plants (variety Yuma) were grown from seed in a greenhouse in 50% mineral soil/50% soil-less Metro mix until the first leaf was fully emerged, with 7-10 seedlings per pot. These plants were inoculated with an aqueous spore suspension of Zymoseptoria tritici either prior to or after fungicide treatments. After inoculation the plants were kept in 100% relative humidity (one day in a dark dew chamber followed by two to three days in a lighted dew chamber at 20° C.) to permit spores to germinate and infect the leaf. The plants were then transferred to a greenhouse set at 20° C. for disease to develop. When disease symptoms were fully expressed on the 1st leaves of untreated plants, infection levels were assessed on a scale of 0 to 100 percent disease severity. Percent disease control was calculated using the ratio of disease severity on treated plants relative to untreated plants.

Setting [4] is: 24 h, 1 day protectant, read-out: PUCCRT 1DP disease control, LV activity at 121.5 g/H.
[5] abbreviates: 72 h, 3 day curative, read-out: PUCCRT 3DC disease control, LV activity at 121.5 g/H.
The mark [6] stands for this setting: 24 h, 1 day protectant, read-out: PHAKPA 1DP disease control at 25 ppm.
The mark [7] stands for this setting: 24 h, 1 day protectant, read-out: SEPTTR 1DP disease control, LV activity at 121.5 g/H.
Setting [8] is: 72 h, 3 day curative, read-out: SEPTTR 3DC disease control, LV activity at 121.5 g/H.
The mark [9] stands for this setting: 24 h, 1 day protectant, read-out: PUCCRT 1DP disease control, HV activity at 100 ppm.
Setting [10] is: 72 h, 3 day curative, read-out: PHAKPA 3DC disease control at 25 ppm.

Like-named read-outs stand apart in the source and are kept apart here. Some results are limits rather than exact numbers.

Take `COc1ccnc(C(=S)N[C@@H](C)C(=O)O[C@@H](C)C(c2ccc(F)cc2)c2ccc(F)cc2)c1OC(C)=O` [Compound 78]: the pest or weed control at 121.5 g/ha in series [1] (setting [4]) is more than 80%; in series [1] (setting [5]) it was not above 80%; in series [3] (setting [7]), more than 80%; in series [3] (setting [8]), more than 80%. Moreover, in series [2] (setting [6]), the pest or weed control at 25 ppm was not above 80%.
As to `COc1cc(C)ccc1C(c1ccc(C)cc1OC)[C@H](C)OC(=O)[C@H](C)NC(=S)c1nccc(OC)c1O` [Compound 29], the melting point fell in the range of 60 to 72 °C. Moreover, in series [1] (setting [9]), the pest or weed control at 100 ppm was more than 80%. Moreover, the pest or weed control at 100 ppm in series [1] (72 h, 3 day curative, read-out: PUCCRT 3DC disease control, HV activity at 100 ppm) is more than 80%. The pest or weed control at 100 ppm in series [3] (24 h, 1 day protectant, read-out: SEPTTR 1DP disease control, HV activity at 100 ppm) was more than 80%. In series [3] (72 h, 3 day curative, read-out: SEPTTR 3DC disease control, HV activity at 100 ppm), the pest or weed control at 100 ppm is more than 80%.
On to `COc1ccnc(C(=S)N[C@@H](C)C(=O)O[C@@H](C)C(c2ccc(F)cc2F)c2ccc(F)cc2F)c1OC(C)=O` [Compound 63], for which the pest or weed control at 121.5 g/ha is more than 80% in series [1] (setting [4]), not above 80% in series [1] (setting [5]), more than 80% in series [3] (setting [7]) and more than 80% in series [3] (setting [8]). Moreover, the pest or weed control at 25 ppm is more than 80% in series [2] (setting [6]) and not above 80% in series [2] (setting [10]).
`COc1ccnc(C(=S)N[C@H](C)C(=O)O[C@H](C)C(c2ccc(F)cc2)c2ccc(F)cc2)c1OC(C)=O` [Compound 68]: the pest or weed control at 121.5 g/ha in series [1] (setting [5]) and in series [3] (setting [7]) was not above 80% each time. For the same compound, the pest or weed control at 25 ppm in series [2] (setting [6]) is not above 80%.
Consider `COc1ccnc(C(=S)N[C@@H](C)C(=O)O[C@@H](C)[C@@H](c2ccc(F)cc2)c2ccc(F)cc2C)c1OC(C)=O` [Compound 64], for which the pest or weed control at 121.5 g/ha in series [1] (setting [4]) was more than 80%; in series [1] (setting [5]), not above 80%; in series [3] (setting [7]) it was more than 80%; in series [3] (setting [8]), more than 80%. In addition, the pest or weed control at 25 ppm in series [2] (setting [6]) and in series [2] (setting [10]) was more than 80% each time.
For `CCC[C@@H](Oc1ccc(C)cc1)[C@H](C)OC(=O)[C@H](C)NC(=S)c1nccc(OC)c1OC(C)=O` [Compound 62], the pest or weed control at 121.5 g/ha in series [1] (setting [4]) was more than 80%; in series [1] (setting [5]), more than 80%; in series [3] (setting [7]) it was not above 80%. For the same compound, the pest or weed control at 25 ppm in series [2] (setting [6]) and in series [2] (setting [10]) was not above 80% each time.
On to `COc1ccnc(C(=S)N[C@@H](C)C(=O)O[C@@H](C)[C@@H](c2ccccc2)c2ccc(F)cc2C)c1OC(C)=O` [Compound 72], for which the pest or weed control at 121.5 g/ha in series [1] (setting [4]), in series [1] (setting [5]), in series [3] (setting [7]) and in series [3] (setting [8]) was more than 80% in each case. Also, the pest or weed control at 25 ppm in series [2] (setting [6]) and in series [2] (setting [10]) was more than 80% throughout.
On to `COc1ccnc(C(=S)N[C@@H](C)C(=O)O[C@H](C(C)C)[C@H](C)Oc2ccc(F)cc2)c1OC(C)=O` [Compound 73], for which the pest or weed control at 121.5 g/ha in series [1] (setting [4]), in series [1] (setting [5]), in series [3] (setting [7]) and in series [3] (setting [8]) was more than 80% each time. Also, the pest or weed control at 25 ppm in series [2] (setting [6]) and in series [2] (setting [10]) was more than 80% in each case.
As for `COc1ccnc(C(=S)N[C@H](C)C(=O)O[C@H](C)C(c2ccc(F)cc2)c2ccc(F)cc2)c1O` [Compound 28], the melting point fell in the range of 53 to 64 °C.
Consider `COc1ccnc(C(=S)N[C@@H](C)C(=O)O[C@@H](C)[C@H](Oc2cccc(F)c2)C(C)C)c1OC(C)=O` [Compound 77], for which the pest or weed control at 121.5 g/ha in series [1] (setting [4]) was more than 80%; in series [1] (setting [5]) it was more than 80%; in series [3] (setting [7]) it was not above 80%; in series [3] (setting [8]) it was more than 80%. The pest or weed control at 25 ppm in series [2] (setting [6]) was more than 80%; in series [2] (setting [10]) it was not above 80%.
As for `COc1cc(F)ccc1C(c1ccc(F)cc1OC)[C@H](C)OC(=O)[C@H](C)NC(=S)c1nccc(OC)c1OC(C)=O` [Compound 67], the pest or weed control at 121.5 g/ha in series [1] (setting [4]) was more than 80%; in series [1] (setting [5]) it was not above 80%; in series [3] (setting [7]) it was more than 80%; in series [3] (setting [8]), more than 80%. In addition, the pest or weed control at 25 ppm is more than 80% in series [2] (setting [6]) and not above 80% in series [2] (setting [10]).
`CC[C@H](OC(=O)[C@H](C)NC(=S)c1nccc(OC)c1O)[C@@H](C)Oc1ccccc1` [Compound 25]: the melting point was 80 to 86 °C. Besides, in series [1] (setting [9]), the pest or weed control at 100 ppm was not above 80%.
For `COc1ccnc(C(=S)N[C@@H](C)C(=O)O[C@@H](C)[C@H](Oc2ccccc2)c2ccc(F)cc2Cl)c1OC(C)=O` [Compound 75], the pest or weed control at 121.5 g/ha in series [1] (setting [4]) is more than 80%; in series [1] (setting [5]) it was not above 80%; in series [3] (setting [7]) it was more than 80%; in series [3] (setting [8]), more than 80%. Further, the pest or weed control at 25 ppm in series [2] (setting [6]) and in series [2] (setting [10]) was not above 80% in each case.
For `COc1ccnc(C(=S)N[C@@H](C)C(=O)O[C@@H](C(C)C)[C@@H](C)Oc2ccccc2)c1OC(C)=O` [Compound 69], the pest or weed control at 121.5 g/ha in series [1] (setting [4]), in series [1] (setting [5]) and in series [3] (setting [8]) was not above 80% throughout. Also, the pest or weed control at 25 ppm in series [2] (setting [6]) is not above 80%.
In the case of `COc1cc(C)ccc1C(c1ccc(C)cc1OC)[C@H](C)OC(=O)[C@H](C)NC(=S)c1nccc(OC)c1OC(C)=O` [Compound 65], the pest or weed control at 121.5 g/ha in series [1] (setting [4]), in series [1] (setting [5]), in series [3] (setting [7]) and in series [3] (setting [8]) was more than 80% each time. In addition, the pest or weed control at 25 ppm is more than 80% in series [2] (setting [6]) and not above 80% in series [2] (setting [10]).
On to `COc1cc(F)ccc1[C@@H](c1ccc(F)cc1)[C@H](C)OC(=O)[C@H](C)NC(=S)c1nccc(OC)c1OC(C)=O` [Compound 70], for which the pest or weed control at 121.5 g/ha in series [1] (setting [4]), in series [1] (setting [5]), in series [3] (setting [7]) and in series [3] (setting [8]) was more than 80% in each case. Moreover, the values for the pest or weed control at 25 ppm in series [2] (setting [6]) and in series [2] (setting [10]) were more than 80% and not above 80%, respectively.
With `COc1ccnc(C(=S)N[C@@H](C)C(=O)O[C@@H](C)[C@H](Oc2ccccc2)c2ccc(F)cc2C)c1OC(C)=O` [Compound 74], the pest or weed control at 121.5 g/ha in series [1] (setting [4]) is more than 80%; in series [1] (setting [5]) it was not above 80%; in series [3] (setting [7]), more than 80%; in series [3] (setting [8]) it was more than 80%. The pest or weed control at 25 ppm in series [2] (setting [6]) and in series [2] (setting [10]) was not above 80% throughout.
Regarding `COc1ccnc(C(=S)N[C@@H](C)C(=O)O[C@@H](C)[C@H](Oc2ccc(Cl)cc2)C2CCCC2)c1OC(C)=O` [Compound 71], the pest or weed control at 121.5 g/ha in series [1] (setting [4]) is more than 80%; in series [1] (setting [5]) it was more than 80%; in series [3] (setting [7]) it was more than 80%; in series [3] (setting [8]), not above 80%. Also, the pest or weed control at 25 ppm in series [2] (setting [6]) was not above 80%.
